Data set [1] concerns RAW264.7. Briefly: cells. As to conditions: Mus musculus, RAW264.7, 120 h.
Description: Antiosteoclast activity in mouse RAW264.7 cells assessed as inhibition of RANKL-induced osteoclast differentiation after 5 days by TRAP assay
Data set [2] concerns RAW264.7. Briefly: Antiosteoclast activity in mouse RAW264.7 cells assessed as inhibition of RANKL-induced osteoclast differentiation at 2 uM after 5 days by TRAP assay. In kind it is functional. As to conditions: RAW264.7, 120 h.
Data set [3] deals with RAW264.7. The data set can be described thus: Antiosteoclast activity in mouse RAW264.7 cells assessed as inhibition of RANKL-induced osteoclast differentiation at 20 uM after 5 days by TRAP assay. It counts as functional. As to conditions: RAW264.7, 120 h.
Data set [4] can be described thus: Cytotoxicity against mouse RAW264.7 cells assessed as inhibition of cell viability at 10 uM after 24 hrs by MTT assay. It counts as cell-based. As to conditions: read-out: INH. (Formazan colour is commonly taken as a measure of viable cells.)
Data set [5] in a line: Cytotoxicity against mouse RAW264.7 cells assessed as inhibition of cell viability at 20 uM after 24 hrs by MTT assay. It counts as cell-based. As to conditions: read-out: INH.
Data set [6] is described as follows: Cytotoxicity against mouse RAW264.7 cells assessed as inhibition of cell viability at 2 uM after 24 hrs by MTT assay. In kind it is cell-based. As to conditions: read-out: INH.
Data set [7] in a line: Cytotoxicity against mouse RAW264.7 cells assessed as inhibition of cell viability at 5 uM after 24 hrs by MTT assay. In kind it is cell-based. As to conditions: read-out: INH.

Structures are written as SMILES.

Take `CC1(C)CC[C@]2(C(=O)NCCN3CCCCC3)CC[C@]3(C)C(=CC[C@@H]4[C@@]5(C)Cc6cn(S(=O)(=O)c7ccc(C(F)(F)F)cc7)nc6C(C)(C)[C@@H]5CC[C@]43C)[C@@H]2C1`: half-maximal inhibition in the data set on RAW264.7 [1] (IC50) required 68 nM. Besides, the inhibition – broadly, how much of the control response was suppressed – at 2 µM in the data set on RAW264.7 [2] amounted to 100%. Moreover, the inhibition at 20 µM in the data set with RAW264.7 [3] stood at 100%.
For the molecule `CC1(C)CC[C@]2(C(=O)NCCCN3CCOCC3)CC[C@]3(C)C(=CC[C@@H]4[C@@]5(C)Cc6cn(S(=O)(=O)c7ccc(F)cc7)nc6C(C)(C)[C@@H]5CC[C@]43C)[C@@H]2C1`, the inhibition at 2 µM in the data set on RAW264.7 [2] worked out at 56.1%. The inhibition at 20 µM in the data set with RAW264.7 [3] was determined as 97.7%.
For `CC1(C)CC[C@]2(C(=O)NCCN3CCCCC3)CC[C@]3(C)C(=CC[C@@H]4[C@@]5(C)Cc6cn(S(=O)(=O)c7ccc(C(C)(C)C)cc7)nc6C(C)(C)[C@@H]5CC[C@]43C)[C@@H]2C1` the same measures were 20.8% and 89.8%.
The matching figures for `COc1ccc(S(=O)(=O)n2cc3c(n2)C(C)(C)[C@@H]2CC[C@]4(C)[C@H](CC=C5[C@@H]6CC(C)(C)CC[C@]6(C(=O)NCCCN6CCOCC6)CC[C@]54C)[C@@]2(C)C3)cc1OC`: 34.4% and 50.9%.
Regarding `Cn1cnc(S(=O)(=O)n2cc3c(n2)C(C)(C)[C@H]2CC[C@@]4(C)[C@@H](CC=C5[C@H]6CC(C)(C)CC[C@@]6(C(=O)NC6CCN(Cc7ccccc7)CC6)CC[C@@]54C)[C@]2(C)C3)c1`, in the data set with RAW264.7 [2], the inhibition at 2 µM was 80.7%. In addition, in the data set on RAW264.7 [3], the inhibition at 20 µM came out at 100%.
For `CC1(C)CC[C@]2(C(=O)NCc3ccccc3)CC[C@]3(C)C(=CC[C@@H]4[C@@]5(C)Cc6cn(S(=O)(=O)c7ccc(Cl)cc7)nc6C(C)(C)[C@@H]5CC[C@]43C)[C@@H]2C1` the same measures were 0% and 0%.
`CC1(C)CC[C@]2(C(=O)NCCCN3CCOCC3)CC[C@]3(C)C(=CC[C@@H]4[C@@]5(C)Cc6cn(S(=O)(=O)c7ccc(OC(F)(F)F)cc7)nc6C(C)(C)[C@@H]5CC[C@]43C)[C@@H]2C1`: in the data set with RAW264.7 [2], the inhibition at 2 µM is 31.8%. Besides, the inhibition at 20 µM with RAW264.7 [3] came to 86.3%.
The matching figures for `CC1(C)CC[C@]2(C(=O)O)CC[C@]3(C)C(=CC[C@@H]4[C@@]5(C)CC[C@H](O)C(C)(C)[C@@H]5CC[C@]43C)[C@@H]2C1` [OLEANOLIC_ACID]: 11.4% and 82.1%.
For `CC1(C)CC[C@]2(C(=O)NC3CCN(Cc4ccccc4)CC3)CC[C@]3(C)C(=CC[C@@H]4[C@@]5(C)Cc6c[nH]nc6C(C)(C)[C@@H]5CC[C@]43C)[C@@H]2C1` the same measures were 88.6% and 100%.
Consider `Cn1cc2c(n1)C(C)(C)[C@@H]1CC[C@]3(C)[C@H](CC=C4[C@@H]5CC(C)(C)CC[C@]5(C(=O)NCc5ccccc5)CC[C@]43C)[C@@]1(C)C2`, for which the inhibition at 2 µM in the data set with RAW264.7 [2] is 76%. Moreover, the inhibition at 20 µM in the data set with RAW264.7 [3] amounted to 99.7%.
For `CC1(C)CC[C@]2(C(=O)NC3CCN(Cc4ccccc4)CC3)CC[C@]3(C)C(=CC[C@@H]4[C@@]5(C)Cc6cn(S(=O)(=O)c7ccc(Br)cc7)nc6C(C)(C)[C@@H]5CC[C@]43C)[C@@H]2C1` the same measures were 20.3% and 19.6%.
On to `Cc1noc(C)c1S(=O)(=O)n1cc2c(n1)C(C)(C)[C@@H]1CC[C@]3(C)[C@H](CC=C4[C@@H]5CC(C)(C)CC[C@]5(C(=O)NCCN5CCCCC5)CC[C@]43C)[C@@]1(C)C2`, for which, in data set [4], the cytotoxicity at 24 h, 10 µM amounted to 70.7%. For the same molecule, in the data set with RAW264.7 [2], the inhibition at 2 µM turned out to be 22.3%. Also, in the data set with RAW264.7 [3], the inhibition at 20 µM was determined as 100%. The cytotoxicity at 24 h, 20 µM in data set [5] is 72%. The cytotoxicity at 24 h, 2 µM in data set [6] is 0%. Moreover, the cytotoxicity at 24 h, 5 µM in data set [7] turned out to be 0%.
With `CC1(C)CC[C@]2(C(=O)NCCCN3CCOCC3)CC[C@]3(C)C(=CC[C@@H]4[C@@]5(C)Cc6cn(S(=O)(=O)c7ccc(C(C)(C)C)cc7)nc6C(C)(C)[C@@H]5CC[C@]43C)[C@@H]2C1`, the inhibition at 2 µM in the data set with RAW264.7 [2] was found to be 56.1%. In addition, in the data set with RAW264.7 [3], the inhibition at 20 µM came to 97.7%.
For the molecule `CC1(C)CC[C@]2(C(=O)NCCCN3CCOCC3)CC[C@]3(C)C(=CC[C@@H]4[C@@]5(C)Cc6c[nH]nc6C(C)(C)[C@@H]5CC[C@]43C)[C@@H]2C1`, in the data set on RAW264.7 [2], the inhibition at 2 µM is 49.8%. Moreover, in the data set on RAW264.7 [3], the inhibition at 20 µM came to 100%.
The matching figures for `CC1(C)CC[C@]2(C(=O)O)CC[C@]3(C)C(=CC[C@@H]4[C@@]5(C)Cc6cn[nH]c6C(C)(C)[C@@H]5CC[C@]43C)[C@@H]2C1`: 32.1% and 99%.
For `CC1(C)CC[C@]2(C(=O)NC3CCN(Cc4ccccc4)CC3)CC[C@]3(C)C(=CC[C@@H]4[C@@]5(C)Cc6cn(S(=O)(=O)c7ccc(F)cc7)nc6C(C)(C)[C@@H]5CC[C@]43C)[C@@H]2C1` the same measures were 73% and 82.9%.
For `CC1(C)CC[C@]2(C(=O)NCc3ccccc3)CC[C@]3(C)C(=CC[C@@H]4[C@@]5(C)Cc6c[nH]nc6C(C)(C)[C@@H]5CC[C@]43C)[C@@H]2C1` the same measures were 67.7% and 100%.
Consider `CC1(C)CC[C@]2(C(=O)NC3CCN(Cc4ccccc4)CC3)CC[C@]3(C)C(=CC[C@@H]4[C@@]5(C)Cc6cn(S(=O)(=O)c7ccc(OC(F)(F)F)cc7)nc6C(C)(C)[C@@H]5CC[C@]43C)[C@@H]2C1`, for which the inhibition at 2 µM in the data set on RAW264.7 [2] amounted to 2.2%. Besides, the inhibition at 20 µM in the data set on RAW264.7 [3] was determined as 71.9%.
The matching figures for `CC1(C)CC[C@]2(C(=O)O)CC[C@]3(C)C(=CC[C@@H]4[C@@]5(C)Cc6cnoc6C(C)(C)[C@@H]5CC[C@]43C)[C@@H]2C1`: 27.4% and 100%.
Regarding `CC1(C)CC[C@]2(C(=O)NCCN3CCCCC3)CC[C@]3(C)C(=CC[C@@H]4[C@@]5(C)Cc6cn(S(=O)(=O)c7ccc(Cl)cc7)nc6C(C)(C)[C@@H]5CC[C@]43C)[C@@H]2C1`, in the data set on RAW264.7 [2], the inhibition at 2 µM was 0.9%. In addition, the inhibition at 20 µM in the data set with RAW264.7 [3] is 100%.
`CC1(C)CC[C@]2(C(=O)NC3CCN(Cc4ccccc4)CC3)CC[C@]3(C)C(=CC[C@@H]4[C@@]5(C)Cc6cn(S(=O)(=O)c7ccc(C(C)(C)C)cc7)nc6C(C)(C)[C@@H]5CC[C@]43C)[C@@H]2C1`: in the data set on RAW264.7 [2], the inhibition at 2 µM came to 39.2%. Moreover, the inhibition at 20 µM in the data set with RAW264.7 [3] was 65.6%.
For `CC1(C)CC[C@]2(C(=O)NC3CCN(Cc4ccccc4)CC3)CC[C@]3(C)C(=CC[C@@H]4[C@@]5(C)Cc6cn(S(=O)(=O)c7ccc(C(F)(F)F)cc7)nc6C(C)(C)[C@@H]5CC[C@]43C)[C@@H]2C1` the same measures were 83.6% and 82.1%.
As for `CC1(C)CC[C@]2(C(=O)NCCCN3CCOCC3)CC[C@]3(C)C(=CC[C@@H]4[C@@]5(C)Cc6cn(S(=O)(=O)c7ccc(Cl)cc7)nc6C(C)(C)[C@@H]5CC[C@]43C)[C@@H]2C1`, the inhibition at 2 µM in the data set with RAW264.7 [2] was 20.6%. In addition, the inhibition at 20 µM in the data set with RAW264.7 [3] is 56.1%.
For `CC1(C)CC[C@]2(C(=O)NC3CCN(Cc4ccccc4)CC3)CC[C@]3(C)C(=CC[C@@H]4[C@@]5(C)Cc6cn(S(=O)(=O)c7ccc(Cl)cc7)nc6C(C)(C)[C@@H]5CC[C@]43C)[C@@H]2C1` the same measures were 18.2% and 41.3%.
For `CC1(C)CC[C@]2(C(=O)NCCN3CCCCC3)CC[C@]3(C)C(=CC[C@@H]4[C@@]5(C)Cc6cnoc6C(C)(C)[C@@H]5CC[C@]43C)[C@@H]2C1` the same measures were 78.5% and 100%.
Consider `Cc1cccc(S(=O)(=O)n2cc3c(n2)C(C)(C)[C@@H]2CC[C@]4(C)[C@H](CC=C5[C@@H]6CC(C)(C)CC[C@]6(C(=O)NCCN6CCCCC6)CC[C@]54C)[C@@]2(C)C3)c1`, for which, in the data set with RAW264.7 [2], the inhibition at 2 µM worked out at 33.6%. In addition, the inhibition at 20 µM with RAW264.7 [3] worked out at 100%.
Turning to `CC1(C)CC[C@]2(C(=O)NCCCN3CCOCC3)CC[C@]3(C)C(=CC[C@@H]4[C@@]5(C)Cc6cnoc6C(C)(C)[C@@H]5CC[C@]43C)[C@@H]2C1`, the inhibition at 2 µM in the data set with RAW264.7 [2] was determined as 23.2%. Also, the inhibition at 20 µM in the data set with RAW264.7 [3] is 45.9%.
For `Cn1cnc(S(=O)(=O)n2cc3c(n2)C(C)(C)[C@@H]2CC[C@]4(C)[C@H](CC=C5[C@@H]6CC(C)(C)CC[C@]6(C(=O)NCCN6CCCCC6)CC[C@]54C)[C@@]2(C)C3)c1` the same measures were 89.5% and 100%.
The matching figures for `Cc1noc(C)c1S(=O)(=O)n1cc2c(n1)C(C)(C)[C@@H]1CC[C@]3(C)[C@H](CC=C4[C@@H]5CC(C)(C)CC[C@]5(C(=O)NC5CCN(Cc6ccccc6)CC5)CC[C@]43C)[C@@]1(C)C2`: 64% and 69.5%.
Consider `Cc1noc(C)c1S(=O)(=O)n1cc2c(n1)C(C)(C)[C@@H]1CC[C@]3(C)[C@H](CC=C4[C@@H]5CC(C)(C)CC[C@]5(C(=O)NCCCN5CCOCC5)CC[C@]43C)[C@@]1(C)C2`, for which the inhibition at 2 µM in the data set with RAW264.7 [2] came to 75.2%. Further, the inhibition at 20 µM in the data set on RAW264.7 [3] came to 100%.
For `CC1(C)CC[C@]2(C(=O)NC3CCN(Cc4ccccc4)CC3)CC[C@]3(C)C(=CC[C@@H]4[C@@]5(C)Cc6cnoc6C(C)(C)[C@@H]5CC[C@]43C)[C@@H]2C1` the same measures were 17.6% and 99.6%.
The matching figures for `CC1(C)CC[C@]2(C(=O)NCc3ccccc3)CC[C@]3(C)C(=CC[C@@H]4[C@@]5(C)Cc6cnoc6C(C)(C)[C@@H]5CC[C@]43C)[C@@H]2C1`: 27.3% and 69.3%.

These data come from ChEMBL document CHEMBL3784938, “Novel heterocyclic ring-fused oleanolic acid derivatives as osteoclast inhibitors for osteoporosis” (Medchemcomm, 2016).
